Assays:
Format in all cases: cell-based
[1] = tested on: E. coli DH5α; experiment: Antibacterial activity: MIC and growth curve against E. coli DH5α in 96-well plate; conditions: minimal inhibitory concentration against E. coli DH5α; 96-well plate, 5×10^5 CFU/mL, 37° C., judged after 8 h
Procedure, shortened: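 Log-phase bacteria (OD600 ~0.5) resuspended in LB at 5×10^5 CFU/mL, exposed to recombinant protein at 50, 25, 12.5 μg/mL final in triplicate, 37 °C shaking at 175 rpm. OD600 read every 30 min; MIC is lowest concentration showing no growth.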

[2] = tested on: E. coli BL21; experiment: MIC against Gram-negative bacteria: E. coli BL21; conditions: 10 h cultivation at 37° C.
Procedure, shortened: (§1)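 First, colonies from LB agar were grown in LB at 37° C, 185 rpm, to McFarland turbidity 0.5, then centrifuged and resuspended in fresh LB. Next, wells received 5×10^5 CFU/mL bacteria plus two-fold serially diluted EGF domain protein (triplicate). Finally, plates were shaken at 37° C and the no-growth concentration taken as MIC.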

[3] = tested on: Pseudomonas aeruginosa; experiment: MIC against Gram-negative bacteria: Pseudomonas aeruginosa; conditions: 10 h cultivation at 37° C.
Procedure, shortened: as §1

[4] = tested on: Klebsiella pneumonia; experiment: MIC against Gram-negative bacteria: Klebsiella pneumonia; conditions: 10 h cultivation at 37° C.
Procedure, shortened: as §1

[5] = tested on: Enterobacter cloacae; experiment: MIC against Gram-negative bacteria: Enterobacter cloacae; conditions: 10 h cultivation at 37° C.
Procedure, shortened: as §1

[6] = tested on: Aeromonas hydrophila; experiment: MIC against Gram-negative bacteria: Aeromonas hydrophila; conditions: 10 h cultivation at 37° C.
Procedure, shortened: as §1

[7] = tested on: Citrobacter diversus; experiment: MIC against Gram-negative bacteria: Citrobacter diversus; conditions: 10 h cultivation at 37° C.
Procedure, shortened: as §1

[8] = tested on: Moraxella catarrhalis; experiment: MIC against Gram-negative bacteria: Moraxella catarrhalis; conditions: 10 h cultivation at 37° C.
Procedure, shortened: as §1

[9] = tested on: Proteus mirabilis; experiment: MIC against Gram-negative bacteria: Proteus mirabilis; conditions: 10 h cultivation at 37° C.
Procedure, shortened: as §1

[10] = tested on: Proteus vulgaris; experiment: MIC against Gram-negative bacteria: Proteus vulgaris; conditions: 10 h cultivation at 37° C.
Procedure, shortened: as §1

[11] = tested on: Serratia marcescens; experiment: MIC against Gram-negative bacteria: Serratia marcescens; conditions: 10 h cultivation at 37° C.
Procedure, shortened: as §1

[12] = 5×10^5 CFU/mL, two-fold serial dilution

| Substance | MIC [1] [µg/mL] | MIC (μg/mL) E. coli BL21 ([2]; E. coli BL21, 5×10^5 CFU/mL) [µg/mL] | MIC (μg/mL) P. aeruginosa ([3]; P. aeruginosa, 5×10^5 CFU/mL) [µg/mL] | MIC (μg/mL) K. pneumonia ([4]; K. pneumonia, 5×10^5 CFU/mL) [µg/mL] | MIC (μg/mL) E. cloacae ([5]; E. cloacae, 5×10^5 CFU/mL) [µg/mL] | MIC (μg/mL) A. hydrophila ([6]; A. hydrophila, 5×10^5 CFU/mL) [µg/mL] | MIC (μg/mL) C. diversus ([7]; C. diversus, 5×10^5 CFU/mL) [µg/mL] | MIC (μg/mL) M. catarrhalis ([8]; M. catarrhalis, 5×10^5 CFU/mL) [µg/mL] | MIC (μg/mL) P. mirabilis ([9]; P. mirabilis, 5×10^5 CFU/mL) [µg/mL] | MIC (μg/mL) P. vulgaris ([10]; P. vulgaris, 5×10^5 CFU/mL) [µg/mL] | MIC (μg/mL) S. marcescens ([11]; S. marcescens, 5×10^5 CFU/mL) [µg/mL] | other results |
| --- | --- | --- | --- | --- | --- | --- | --- | --- | --- | --- | --- | --- |
| PRT747 (DIDECKDPDACSQICVNYKGYFKCECYPGYEMDLLTKNCK; listed as Homo sapiens) | 50 | 50 | 12.5 | 12.5 | 12.5 | 12.5 | 50 | 12.5 | 50 | 25 | 12.5 |  |
| PRT793 (YGEACQQICSCQNGADCDSVTGKCTCAPGFKGIDCS; listed as Homo sapiens) | 25 | 12.5 | 50 | 12.5 | 25 | 50 | 25 | 12.5 | 25 | 50 | 12.5 |  |
| PRT175 (CEHAPCHNGATCHERGHRYVCECARGYGGPNC; listed as Homo sapiens) | 12.5 | 12.5 | 12.5 | 12.5 | 12.5 | 25 | 12.5 | 25 | 12.5 | 25 | 12.5 |  |
| PRT916 (QADPCASNPCANGGQCLPFEASYICHCPPSFHGPTCR; listed as Homo sapiens) | 25 |  |  |  |  |  |  |  |  |  |  | MIC ([2]; E. coli BL21): 12.5 µg/mL; MIC ([3]; P. aeruginosa): 50 µg/mL; MIC ([4]; K. pneumonia): 25 µg/mL; MIC ([5]; E. cloacae): 12.5 µg/mL; MIC ([6]; A. hydrophila): 50 µg/mL; MIC ([7]; C. diversus): 25 µg/mL; MIC ([8]; M. catarrhalis): 12.5 µg/mL; MIC ([9]; P. mirabilis): 25 µg/mL; MIC ([10]; P. vulgaris): 50 µg/mL; MIC ([11]; S. marcescens): 12.5 µg/mL |
| PRT752 (TAHMCSTLEHNCAHFCINIPGSYVCRCKQGYILNSDQTTCR; listed as Homo sapiens) | 50 | 25 | 12.5 | 12.5 | 12.5 | 50 | 12.5 | 25 | 50 | 25 | 12.5 |  |
| PRT1058 (DIDECQLGEHSCGENASCTNTEGGYTCMCAGRLSEPGLICP; listed as Homo sapiens) | 12.5 |  |  |  |  |  |  |  |  |  |  | MIC E. coli BL21 [2, 12]: 25 µg/mL; MIC P. aeruginosa [3, 12]: 50 µg/mL; MIC K. pneumonia [4, 12]: 25 µg/mL; MIC E. cloacae [5, 12]: 12.5 µg/mL; MIC A. hydrophila [6, 12]: 50 µg/mL; MIC C. diversus [7, 12]: 12.5 µg/mL; MIC M. catarrhalis [8, 12]: 50 µg/mL; MIC P. mirabilis [9, 12]: 12.5 µg/mL; MIC P. vulgaris [10, 12]: 50 µg/mL; MIC S. marcescens [11, 12]: 12.5 µg/mL |

Source: patent US9833497B2, “Human originated EGF domain proteins and use of the same” (CHENGDU SOURCEBIO LIMITED-LIABILITY COMPANY, priority 2013, dated 2017)
